For one data set, the system named is MT-4 cells. Briefly: Cytotoxicity in MT-4 cells, MTT. The data set is classed as cell-based, human. The settings on record: viability of MT-4 cells, MTT assay. The procedure: (§1) The cells were infected by incubation with different titers of the HIV-1 strains for 2 hrs at 37° C. in the presence or absence of the AAC of the invention. Then the cells were washed from the virus by centrifugation at 400 g and the supernatants were discarded. The cells were resuspended in culture medium, supplemented with different concentrations of the test compounds. The cells were allowed to proliferate for 5 days, the number of viable cells was quantified by a tetrazolium-based colorimetric method (CellTiter 96® AQueous One solution Cell Proliferation Assay, Promega). Anti-HIV activity in P4-CCR5 MAGI cells was done as follows: cells (1×10^5/ml) were infected with 10 ng/ml of p24 antigen of HIV-1 Ba-L in the presence of varying concentrations of the test compound. 24 hours post infection, cells were washed twice with PBS and resuspended in the medium containing the appropriate drug concentration. Five days after infection the cells were washed with PBS and evaluated for β-galactosidase activity.
On the technique in general: Tetrazolium assays rely on reduction of a dye to a coloured formazan, in cell work by metabolically active cells.

A further data set has as its target CXCR4 (Homo sapiens, UniProt P61073). Briefly: Inhibition of anti-CXCR4 mAb (12G5) binding, flow cytometry, SUP-T1 cells. As to conditions: for affinity for CXCR4: inhibition of 12G5 binding to SUP-T1 cells or PMBC. Set-up: endogenous in cells. As for the experimental part:
Measurement of chemokine receptors CXCR4, CCR5 and the CD4 receptor on phytohemagglutinin (PHA)-activated PBMC was performed by flow cytometry analysis. Briefly, 0.5×10^6 cells were washed in ice-cold phosphate-buffered saline (PBS) and incubated for 30 minutes at 4÷C. with fluorescent labelled mAb 12G5 and 2D7 and Leu3a (Becton Dickinson, San Jose, Calif.) or with isotype control mAbs in the presence or absence of the test compound. Then, the cells were washed with ice-cold PBS and were fixed in PBS containing 1% formaldehyde. For each sample, 10,000 events were analysed in a FACScalibur™ system (Becton Dickinson). Data were acquired and analysed with CellQuest™ software (Becton Dickinson).
Background: In flow cytometry, cells or beads pass a laser one at a time.

The test system of data set [1] is HIV-1 clinical isolate (clade C). Briefly: Anti-HIV assay, syncytium formation and tetrazolium colorimetric assay. The data set is classed as cell-based. The procedure:
(§2) T-tropic HIV-1 laboratory strains IIIb, 2D as well as AZT-resistant and UC781-resistant strains were utilized in this study, along with clinical isolate (clade C). HIV-1 clinical isolate, resistant to AZT is a generous gift from Dr. Mark A. Wainberg, McGill AIDS Center, McGill University, Montreal, Canada.
(§3) MT-2 or MT-4 cells were cultured in RPMI 1640 supplemented with 10% fetal calf serum (FCS), 0.2 mM glutamine and penicilline/streptomycin/nistatin mixture. The cells were propagated in 96-well tissue culture plates at the density of 5×10^4 cells per well. Peripheral mononuclear blood cells (PMBC) were separated from whole blood samples by centrifugation in Ficoll gradient for 10 min at 400 g. PMBC were cultured in the same medium in 24-well tissue culture plates at the density of about 10^6 cells per well.

Another data set relates to HIV-1 IIIB. The data set is described as above. The class given is cell-based. As to conditions: range over IIIb, 2D, AZT resistant, UC781 resistant and clade C HIV-1. The procedure: as §2, §3
For data set [2], the system named is HIV-1 clinical isolate, resistant to AZT. The data set is described as above. The class given is cell-based. The settings on record: average of two independent experiments in duplicates; read-out: EC50 HIV-1 AZTres. The procedure: as §2, §3
Data set [3] relates to MT-2 cells as well as PMBC lines ETH and IS. As to conditions: ratio CC50/EC50. As for the experimental part: as §1
For another data set, the system named is HIV-1 2D. The class given is cell-based. The procedure: as §2, §3
The mark [4] stands for this setting: average of two independent experiments in duplicates.

pEC50, pIC50: −log10 of the molar value.

Broadly, the CC50 is the concentration at which the toxic effect on the cells reaches its halfway point. One may read the pIC50 as −log10 of the IC50, conventionally taken in molar units. A lower pIC50 goes with a large IC50. For orientation: pEC50 means the negative decadic logarithm of the EC50, by convention in mol/L.

Sequence of CXCR4 (P61073 whole entry): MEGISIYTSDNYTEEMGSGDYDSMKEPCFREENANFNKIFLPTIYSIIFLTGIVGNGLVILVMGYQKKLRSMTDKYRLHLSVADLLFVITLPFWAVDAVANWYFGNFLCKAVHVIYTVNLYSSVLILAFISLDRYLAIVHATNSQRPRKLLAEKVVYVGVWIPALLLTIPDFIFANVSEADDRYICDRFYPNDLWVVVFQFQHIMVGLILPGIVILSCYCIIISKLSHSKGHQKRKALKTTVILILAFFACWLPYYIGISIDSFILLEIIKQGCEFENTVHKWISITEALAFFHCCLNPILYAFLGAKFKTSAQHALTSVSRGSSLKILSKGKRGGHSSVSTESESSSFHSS

For `N=C(N)NCCCC(N)C(=O)NCC1OC(OC2C(NC(=O)C(N)CCCNC(=N)N)CC(NC(=O)C(N)CCCNC(=N)N)C(OC3OC(CO)C(O)C(NC(=O)C(N)CCCNC(=N)N)C3O)C2O)C(O)C(O)C1O` (stereo not drawn) [R4K, Tetraargininamido-kanamycin A conjugate], in the data set with MT-4 cells, the CC50 was greater than 1.13 mM. Besides, at CXCR4, the pIC50 was 5.43 and the “affinity for CXCR4” value was “high affinity”.

As to “Triargininamido-gentamicin conjugate [R3G]”, the “inhibition of virus growth” value in data set [1] (MT-2 cells infected in presence of 20 μM R3G or 10 μM NeoR, then 3 days without AAC) came to 30%. The pEC50 is 5.22 in data set [1] (setting [4]), 5.00 to 5.22 with HIV-1 IIIB, 5.10 in data set [2] and 5.00 in the data set on HIV-1 2D (setting [4]). Moreover, the pIC50 on CXCR4 is 5.11. Further, on CXCR4, the “affinity for CXCR4” value is reported as “high affinity”. The TI50 in data set [3] is given as 50-85. Moreover, the “antiviral effect in the presence of AZT” value with HIV-1 2D (HIV-1 2D and clade C) was “additive”.

These data come from US6642365B1, “Anti-(retro)viral conjugates of saccharides and acetamidino or guanidino compounds” (Yeda Research and Development Co. Ltd., priority 2001, dated 2003).
